Drawing on patent publication EP4680608B1, “2,6-DIHYDRO-7H-PYRAZOLO[3,4-C]PYRIDIN-7-ONE DERIVATIVES AS ANTI-MALARIAL AGENTS” (MMV Medicines for Malaria Venture, priority 2024, dated 2025), this text covers IC50 and EC50 for 23 compounds.

Structures are written as SMILES. Where only a bound is given, the exact number is not on record here.

The target of one test is T1, P. falciparum DHODH (Plasmodium falciparum, UniProt Q08210).
T1 construct: His6 (N); made in house; host or cells: E. coli BL21-DE3 (phage-resistant)
T1 sequence (Q08210 158-569): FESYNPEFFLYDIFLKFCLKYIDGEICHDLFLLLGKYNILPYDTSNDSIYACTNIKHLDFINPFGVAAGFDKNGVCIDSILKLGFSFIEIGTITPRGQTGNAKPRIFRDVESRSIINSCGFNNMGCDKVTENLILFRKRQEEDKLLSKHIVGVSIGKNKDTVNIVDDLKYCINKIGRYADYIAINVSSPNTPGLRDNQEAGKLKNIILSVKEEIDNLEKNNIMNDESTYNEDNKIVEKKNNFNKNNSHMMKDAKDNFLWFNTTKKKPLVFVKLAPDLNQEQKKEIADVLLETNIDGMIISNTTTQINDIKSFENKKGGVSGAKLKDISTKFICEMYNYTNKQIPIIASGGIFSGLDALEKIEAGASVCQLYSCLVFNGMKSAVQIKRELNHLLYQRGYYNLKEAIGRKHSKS
Briefly: DHODH inhibition, steady-state DCIP assay (PfDHODH). To be noted: recombinant PfDHODH, DCIP method, 25°C, 5 nM enzyme. Format: biochemical. Here is the method:
(§1) Compound stocks were prepared at 10-100 mM in DMSO, and diluted working stocks in DMSO were generated as appropriate. Compounds were plated from DMSO stocks in 96 well plate format using a Tecan D300e digital dispenser to generate a 3-fold dilution series over a concentration range of 0.0003 -100 µM (or 30 µM), yielding a final DMSO concentration of 1% in the assay. The top concentration used in the dose response was determined by the initial DMSO stock concentrations:100 µM for 100 mM stocks, and 30 µM for 10 mM stocks. Triplicate rate data were collected at each inhibitor concentration. Inhibitory IC50 values were determined by fitting the data to log (inhibitor) vs response equation Y = bottom + (top - bottom)/(1 + 10A ((X - Log IC50))) in GraphPad Prism.

In a further test the target is T2, Human DHODH (Homo sapiens, UniProt Q02127).
T2 construct: C-terminal His6-tagged HsDHODH residues 29-395 in pET-22b (start ^29MATGDE); His6 (C); made in house; host or cells: E. coli BL21-DE3 (phage-resistant)
T2 sequence (Q02127 29-395): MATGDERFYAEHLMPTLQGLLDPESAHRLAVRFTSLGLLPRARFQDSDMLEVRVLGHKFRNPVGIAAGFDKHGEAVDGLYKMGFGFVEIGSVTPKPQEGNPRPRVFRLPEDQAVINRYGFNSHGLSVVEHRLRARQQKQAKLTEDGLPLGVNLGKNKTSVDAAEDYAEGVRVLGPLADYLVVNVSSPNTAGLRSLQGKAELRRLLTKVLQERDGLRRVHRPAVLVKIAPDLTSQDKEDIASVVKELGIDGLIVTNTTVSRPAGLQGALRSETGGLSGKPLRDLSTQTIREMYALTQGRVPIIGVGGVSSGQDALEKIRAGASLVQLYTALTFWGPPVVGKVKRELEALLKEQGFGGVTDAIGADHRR
Briefly: DHODH inhibition, steady-state DCIP assay (human DHODH). Format: biochemical. To be noted: recombinant HsDHODH, DCIP method, 25°C, 5 nM enzyme; top concentration 100 µM or 30 µM.
Text: (§2) DOI: 10.1074/jbc.M206854200).
(§3) Proteins were expressed and purified on a Pharmacia FPLC using HisTrap HP column chromatography followed by gel filtration chromatography on a Pharmacia HiLoad 16/600 Superdex 200 column, and protein concentration determined based on OD280 using the previously described extinction coefficients (Kokkonda et al., 2020, J Med Chem, 63 (9), 4929-4956. DOI: 10.1021/acs.jmedchem.0c00311). Purified proteins were >95% pure based on SDS-PAGE analysis.
(§4) DHODH activity was monitored in a steady-state assay using the 2,6-dichloroindophenol (DCIP) method at 25°C in assay buffer (100 mM HEPES, pH 8.0, 150 mM NaCl, 1% glycerol, 0.1% Triton X-100 reduced) plus substrates 20 µM CoQD, 200 µM DHO, 120 µM DCIP, and 5 nM enzyme as previously described (Malmquist et al, 2008, Biochemistry, 47 (8), 2466-2475. DOI: 10.1021/bi702218c).
as §1, with “Prism. DSM265 ^2 was plated as an assay control in all studies.” for “Prism.”

A further test has as its target P. vivax DHODH (Plasmodium vivax, UniProt A5K1N1). Nature of the test: DHODH inhibition, steady-state DCIP assay (PvDHODH). It is filed as biochemical. To be noted: recombinant PvDHODH, DCIP method, 25°C, 5 nM enzyme; read-out: P. vivax DHODH (IC50).
Text: as §2, §3, §4
as §1, with “Prism. DSM265 ^2 was plated as an assay control in all studies.” for “Prism.”

In a further test the test system is P. falciparum 3D7. Briefly: Asexual blood-stage growth inhibition assay, SYBR green method. To be noted: ring-stage 3D7 parasites. It is filed as cell-based. Here is the method: Asexual blood-stage EC50 assays. […] Compound stocks prepared in DMSO were plated using a Tecan D300e automated low volume liquid handler. Ring-stage 3D7 or Dd2 parasites (60 µL cells) (2% hematocrit, 0.5% parasitemia, final DMSO concentration 0.5%) were added to plates, incubated with compounds over a range of concentrations in technical triplicate for 72 h at 37 °C, 5% CO2, and then frozen (-80°C) overnight before analysis. […] Data were analyzed by non-linear regression using GraphPad Prism to determine the EC50 by fitting to the built-in equation (log(inhibitor) vs response-variable slope with four parameters).

Where [1] appears, read: Plasmodium falciparum, 3D7, 72 h.

Chain of P. vivax DHODH (A5K1N1 entry or part of it): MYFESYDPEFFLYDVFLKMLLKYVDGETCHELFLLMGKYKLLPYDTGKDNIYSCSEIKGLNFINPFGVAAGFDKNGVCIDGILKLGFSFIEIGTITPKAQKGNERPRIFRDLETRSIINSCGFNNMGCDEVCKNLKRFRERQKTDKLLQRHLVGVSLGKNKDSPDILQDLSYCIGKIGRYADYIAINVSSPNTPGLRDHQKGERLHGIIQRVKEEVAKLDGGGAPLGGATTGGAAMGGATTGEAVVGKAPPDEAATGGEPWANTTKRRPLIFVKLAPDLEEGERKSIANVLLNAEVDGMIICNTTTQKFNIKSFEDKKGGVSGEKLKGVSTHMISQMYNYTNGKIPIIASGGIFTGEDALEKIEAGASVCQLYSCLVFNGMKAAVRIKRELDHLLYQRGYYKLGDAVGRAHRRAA

As to `CC[C@@](N)(c1cnc(C(F)(F)F)c(Cl)c1)c1c2ccn(C3CC3)c(=O)c2nn1C` (single isomer, unassigned) [4-11], the IC50 at P. falciparum DHODH stood at 42 nM; on Human DHODH, 13 µM; on P. vivax DHODH it was 41 nM. The compound further displayed an EC50 in the test on P. falciparum 3D7 (setting [1]) of 2.6 nM.
Regarding `CCn1cc(C)c2c([C@H](N)c3ccc(C(F)(F)F)c(C#N)c3)n(C)nc2c1=O` (single isomer, unassigned) [4-14], the IC50 on P. falciparum DHODH was 83 nM; on Human DHODH it was over 100 µM; on P. vivax DHODH, 39 nM. The compound also registered an EC50 in the test with P. falciparum 3D7 (setting [1]) of 16 nM.
The matching figures for `Cn1nc2c(=O)n(C3CC3)ncc2c1[C@](N)(c1ccc(C(F)(F)F)c(Cl)c1)C1CC1` (single isomer, unassigned) [4-16]: 17 nM, 16 µM, 7.8 nM and 7.4 nM.
The matching figures for `Cn1nc2c(=O)n(C3CC3)cnc2c1[C@](C)(N)c1ccc(C(F)(F)F)c(Cl)c1` (single isomer, unassigned) [4-20]: 8.2 nM, 20 µM, 8.3 nM and 0.44 nM.
The matching figures for `CC[C@@](N)(c1ccc(F)c(Cl)c1)c1c2ncn(C3CC3)c(=O)c2nn1C` (single isomer, unassigned) [4-22]: 23 nM, 4.6 µM, 20 nM and 4.1 nM.
On to `Cn1nc2c(=O)n(C3CC3)cnc2c1[C@](N)(c1ccc(C(F)(F)F)c(Cl)c1)C1CC1` (single isomer, unassigned) [4-24], for which the IC50 on P. falciparum DHODH was 11 nM; at Human DHODH it was 3.2 µM; at P. vivax DHODH, 8.7 nM. Also, in the test with P. falciparum 3D7 (setting [1]), the EC50 turned out to be 2.1 nM.
Taken in the same sequence, the figures for `CC[C@@](N)(c1ccc(C(F)(F)F)c(Cl)c1)c1c2ncn(C3CC3)c(=O)c2nn1C` (single isomer, unassigned) [4-26] were 9.5 nM, 1.4 µM, 5.2 nM and 0.91 nM.
Taken in the same sequence, the figures for `CC[C@@](N)(c1cnc(C(F)(F)F)c(Cl)c1)c1c2ncn(C3CC3)c(=O)c2nn1C` (single isomer, unassigned) [4-27] were 47 nM, over 30 µM, 40 nM and 6.5 nM.
Regarding `Cn1nc2c(=O)n(C3CC3)cnc2c1[C@](O)(c1cnc(C(F)(F)F)c(Cl)c1)C(F)(F)F` (single isomer, unassigned) [5-3], the IC50 on P. falciparum DHODH is 18 nM; on Human DHODH it was over 30 µM; on P. vivax DHODH, 28 nM. Moreover, in the test on P. falciparum 3D7 (setting [1]), the EC50 was found to be 1.7 nM.
With `Cn1nc2c(=O)n(C3CC3)ccc2c1[C@](O)(c1ccc(F)c(Cl)c1)C(F)(F)F` (single isomer, unassigned) [5-9], the values for the IC50 at P. falciparum DHODH, on Human DHODH and at P. vivax DHODH were 14 nM, 9.2 µM and 9.8 nM, respectively. In the test with P. falciparum 3D7 (setting [1]), this compound yielded an EC50 of 0.52 nM.
For the compound `Cn1nc2c(=O)n(C3CC3)ncc2c1[C@](O)(c1ccc(C(F)(F)F)c(Cl)c1)C(F)(F)F` (single isomer, unassigned) [5-15], the values for the concentration for half-maximal inhibition (IC50) on P. falciparum DHODH, at Human DHODH and on P. vivax DHODH were 8.6 nM, 24 µM and 9.3 nM, respectively. In addition, the EC50 with P. falciparum 3D7 (setting [1]) came out at 0.29 nM.
Taken in the same sequence, the figures for `Cn1nc2c(=O)n(C3CC3)cnc2c1[C@](O)(c1ccc(C(F)(F)F)c(Cl)c1)C(F)(F)F` (single isomer, unassigned) [5-17] were 4.6 nM, 5.6 µM, 6.1 nM and 0.046 nM.
On to `Cn1nc2c(=O)n(C3CC3)cnc2c1[C@](O)(c1ccc(C(F)(F)F)c(C#N)c1)C(F)(F)F` (single isomer, unassigned) [5-19], for which the IC50 was determined as 12 nM on P. falciparum DHODH, 17 µM at Human DHODH and 20 nM on P. vivax DHODH. The EC50 in the test with P. falciparum 3D7 (72 h) amounted to 0.35 nM.
Turning to `Cn1nc2c(=O)n(C3CC3)cnc2c1[C@](O)(c1ccc(C(F)(F)F)nc1)C(F)(F)F` (single isomer, unassigned) [5-21], the figures for the 50% inhibitory concentration (IC50) on P. falciparum DHODH, on Human DHODH and at P. vivax DHODH were 31 nM, over 30 µM and 29 nM, respectively. In the test with P. falciparum 3D7 (setting [1]), this compound returned an EC50 of 2.1 nM.
The matching figures for `Cn1nc2c(=O)n(C3CC3)cnc2c1[C@](O)(c1cnc(C(F)(F)F)c(Cl)c1)C(F)F` (single isomer, unassigned) [5-22]: 11 nM, 22 µM, 7.7 nM and 6.1 nM.
Taken in the same sequence, the figures for `CC(C)n1cnc2c([C@](O)(c3ccc(C(F)(F)F)c(Cl)c3)C(F)(F)F)n(C)nc2c1=O` (single isomer, unassigned) [5-32] were 5 nM, 14 µM, 8.5 nM and 0.25 nM.
Taken in the same sequence, the figures for `Cn1nc2c(=O)n(C3CC3)cnc2c1[C@](N)(c1ccc(C(F)(F)F)c(C#N)c1)C(F)(F)F` (single isomer, unassigned) [5-40] were 18 nM, over 30 µM, 22 nM and 3.1 nM.
For `Cn1nc2c(=O)n(C3CC3)ccc2c1[C@](N)(c1ccc(C(F)(F)F)c(C#N)c1)C(F)(F)F` (single isomer, unassigned) [5-45], the results for the IC50 on P. falciparum DHODH, at Human DHODH and at P. vivax DHODH were 8.2 nM, 30 µM and 8.5 nM, respectively. In addition, a half-maximal response in the test on P. falciparum 3D7 (setting [1]) (EC50) required 0.85 nM.
The matching figures for `Cn1nc2c(=O)n(C3CC3)ccc2c1[C@](N)(c1ccc(C(F)(F)F)c(Cl)c1)C(F)(F)F` (single isomer, unassigned) [5-49]: 3.9 nM, 9 µM, 4.2 nM and 0.64 nM.
Taken in the same sequence, the figures for `Cn1nc2c(=O)n(C3CC3)cnc2c1[C@](N)(c1ccc(C(F)(F)F)c(Cl)c1)C(F)(F)F` (single isomer, unassigned) [5-51] were 4.3 nM, 30 µM, 4 nM and 0.71 nM.
For the compound `Cn1nc2c(=O)n(C3CC3)cnc2c1[C@](O)(c1cnc(C(F)(F)F)c(C#N)c1)C(F)(F)F` (single isomer, unassigned) [5-52], the IC50 on P. falciparum DHODH is 62 nM; at Human DHODH, over 30 µM; on P. vivax DHODH, 46 nM. Besides, in the test with P. falciparum 3D7 (setting [1]), a half-maximal response (EC50) required 11 nM.
Taken in the same sequence, the figures for `Cn1nc2c(=O)n(C3CC3)cnc2c1[C@](O)(c1ccc(C(F)F)c(C#N)c1)C(F)(F)F` (single isomer, unassigned) [5-54] were 44 nM, over 30 µM, 3.5 nM and 3 nM.
Taken in the same sequence, the figures for `CCC(O)(c1cnc(C(F)(F)F)c(Cl)c1)c1c2cc(C)n(C3CC3)c(=O)c2nn1C` (centres unmarked) [1-7, 3-(1-(5-chloro-6-(trifluoromethyl)pyridin-3-yl)-1-hydroxypropyl)-6-cyclopropyl-2,5-dimethyl-2,6-dihydro-7H-pyrazolo[3,4-c]pyridin-7-one] were 60 nM, 14 µM, 26 nM and 6.5 nM.
